Measured values: patent US11684599B2, “Very-long-chain polyunsaturated fatty acids, elovanoid hydroxylated derivatives, and methods of use” (Board of Supervisors of Louisiana State University and …, priority 2017, dated 2023)

What was measured:
[1] = system: cerebral-cortical mixed neuronal cells and hippocampal neurons; assay: NMDA excitotoxicity of neurons in culture, cell viability; assay type: cell-based, rat; settings: for synergy with NPD1 in neuroprotection against NMDA excitotoxicity: ELV 200 nM with NPD1 100 nM; for synergy with NPD1 in neuroprotection against NMDA excitotoxicity / neuroprotection against NMDA excitotoxicity (Hoechst): NMDA 100 μM; for synergy with NPD1 in neuroprotection against NMDA excitotoxicity / NMDA-induced neuronal death / neuroprotection against NMDA excitotoxicity (Hoechst): 12 h; for NMDA-induced neuronal death: ELV (Na or Me) 200 nM or 500 nM added along with NMDA 25, 50 or 100 μM; for neuroprotection with MK801 and NPD1 added together: compared with ELV-N32-Na or ELV-N32-Me alone; for neuroprotection against NMDA excitotoxicity (Hoechst): 500 nM, DIV 12
Description: (§1) Primary cultures of cortical and hippocampal neurons were harvested from 18-day-old embryos (E18) taken from timed-pregnant, two-month-old Sprague-Dawley (SD) rats (Charles River Lab., Wilmington, Mass.). Briefly, timed-pregnant SD rats were euthanized and embryos were collected in sterile conditions. Embryonic brains were dissected out by forceps on ice and placed in a petri dish containing ice-cold Hank's Balanced Salt Solution (HBSS) (GIBCO). Meninges were removed under a dissecting microscope and cortical tissues were chopped into small pieces with micro-spring scissors. These tissues were transferred to 15 ml tubes containing trypsin-EDTA (0.025% in HBSS) and DNase I. The tubes were incubated in 37° C. chamber for 15 mins and were agitated every 5 mins. After stopping the trypsinization with 5 ml 10% FBS, these tissues were triturated 15 times with a fire polished Pasteur pipet. Cell clumps were left to settle for 2 mins and the supernatant was transferred to a 15 ml Eppendorf tube. The supernatant was filtered through a 70 μm pore-sized filter (Corning cell strainer) and centrifuged for 5 mins at 1000 rpm. The cells were then resuspended in Neurobasal medium (GIBCO) containing 2% B27 (GIBCO) and 2% N2 (GIBCO) supplements, along with 0.5 mM glutamine, 50 U/ml penicillin/streptomycin.
(§2) Cells were counted using a Neubauer hemocytometer. 1×10^6 cells were seeded on poly-D-lysine-coated 12 well cell culture dish (CORNING) and cultured in incubator (37° C., 5% CO2). Culture medium was first replaced after 24 h, then half of the medium was replaced with fresh medium every three days. As a result, approximately, 90% purity of neurons was obtained as determined by class-III-β tubulin, GFAP and Hoechst 33258 staining. Cells were maintained in culture for about 2 weeks until they were exposed to uncompensated oxidative stress, OGD, or NMDA excitotoxicity.
After 90 mins of OGD exposure, cells were returned to the original medium (Neurobasal medium (GIBCO) containing 2% B27 (GIBCO) and 2% N2 (GIBCO) supplements, along with 0.5 mM glutamine, 50 U/ml penicillin/streptomycin) and placed in a normoxic chamber (37° C., 5% CO2) for 2 h. Then the medium was changed with medium containing either ELV-N32 or ELV-N34 [500 nM] and maintained in a normoxic chamber (37° C., 5% CO2) for 12 h, after which cells were sampled and assayed for cell viability using different methods as previously described (25-28). Cerebral cortical mixed neuronal cells or hippocampal cells in culture were exposed to either NMDA or uncompensated oxidative stress (UOS) for 12 h by addition of either NMDA (25 μM, 50 μM, or 100 μM) concentration or by the addition of TNFα (10 ng/mL) and H2O2 (50 μM, 100 μM, or 200 μM). Cell viability and neuroprotection in the presence of ELV-N32, ELV-N34, 32:6, or 34:6 were assayed after 12 h.
Cells were washed with 1× Dulbecco's Phosphate Buffered Saline (DPBS) containing no calcium or magnesium (GIBCO) and fixed for 10 mins using ice-cold 4% paraformaldehyde (PFA) followed by 15 mins incubation in 100% methanol. Cells were washed with 1× Phosphate Buffered Saline (PBS) pH 7.4 (GIBCO) and incubated in PBS containing 20 μM Hoechst 33258 (Molecular Probes) for 20 mins. Cells were then washed 3 times with 1×PBS and stored in 1×PBS at 4° C. until they were imaged for microscopy.
One 4×4 tile mosaic was acquired from the center of each well using a Zeiss 510 Meta laser confocal microscope and LSM 510 Meta software. Images were imported into image analysis software ImageJ (National Institutes of Health, Bethesda, Md.) and batch processed using custom macros. An Otsu auto threshold was applied to each image of Hoechst-stained nuclei, and the area of each detected object was recorded. Objects with areas <10 μm^2 were excluded from analysis. To estimate percentage non-pyknotic nuclei, a size cutoff value was chosen above which objects were assumed to be non-pyknotic. […]

[2] = system: ARPE-19 cells under UOS; assay: Western blot of pro-survival and pro-apoptotic proteins in RPE cells under UOS; assay type: cell-based, human; settings: for pro-apoptotic protein Bax / pro-apoptotic protein Bid / pro-apoptotic protein Bim: ARPE-19 cells under UOS; for SIRT1 expression: RPE under UOS; for Prohibitin (type-1) expression: concentration-dependent (100 and 250 nM); for Sirtuin1 (SIRT1) expression: dose-dependent, 100-200 nM
Protocol: ARPE19 cells at 75-80% confluence (72 h growth in DMEM/F12+10% FBS) in 6-well plates were serum-starved for 8 h before exposure. The serum-starved cells were treated with TNF-α (Sigma-Aldrich, St. Louis, Mo.) (10 ng/ml) and H2O2 (600 μM) to induce oxidative stress and challenged with increasing concentrations (50-500 nM) of VLC-PUFA (C32:6n3 and C34:6n3) simultaneously with oxidative stress for 16 h (apoptosis) and 6 h (Western-blot) before detection of apoptosis and harvesting for protein analysis. In some experiments, DHA at a concentration of 100 nM and 15-LOX-1 inhibitor PD146176 at a concentration of 1 μM was added to treat the RPE cells under stress. Cell extracts were made and protein concentrations adjusted by Bio-Rad (Hercules, Calif.) protein reagent and used for Western blot analysis.
Bcl-2 family proteins, SIRT1 and Proinhibitin (type-1), and Iduna proteins were analyze by Western blot analysis. In brief, 20-25 μg equivalents of each cell extracts were subject to electrophoresis on a 4-12% gel (Promega) at 125 V for 2 h. The proteins were transferred to nitrocellulose membrane by I-blot transfer apparatus. The membranes were subjected to treatment with primary antibodies specific for Bcl-2, Bcl-xL, Bax, Bid, Bim, SIRT1 and Prohibitin (type-1) (Santa Cruz Biotechnology) and Iduna antibody (Neuro-Mab Lab, UCLA, Los Angeles, Calif.) overnight at 4° C. and probed for 45 mins with secondary antibody, goat anti-mouse Ig:horseradish peroxidase, and horseradish peroxidase-conjugated anti-biotin antibody, and then proteins were evaluated by using an ECL kit (Amersham).

[3] = system: cerebral-cortical mixed neuronal cells; assay: Uncompensated oxidative stress (TNFα plus H2O2) of neurons in culture; assay type: cell-based, rat; settings: 200 nM; TNFα 10 ng/mL and H2O2 (50, 100 or 200 μM), 12 h
Description: as §1
as §2, with “Cells were maintained in culture for about 2 weeks until they were exposed to uncompensated oxidative stress, OGD, or NMDA excitotoxicity.” left out
One 4×4 tile mosaic was acquired from the center of each well using a Zeiss 510 Meta laser confocal microscope and LSM 510 Meta software. […] An Otsu auto threshold was applied to each image of Hoechst-stained nuclei, and the area of each detected object was recorded. […]

Compound | anti-apoptotic protein Bcl-2 ([2]; RPE cells under UOS) | anti-apoptotic protein Bcl-xL ([2]; RPE cells under UOS) | pro-apoptotic protein Bax ([2]; VLC-PUFA) | pro-apoptotic protein Bid ([2]; VLC-PUFA) | pro-apoptotic protein Bim ([2]; VLC-PUFA) | Iduna expression ([2]; VLC-PUFA, RPE cells under UOS) | SIRT1 expression ([2]; VLC-PUFA) | Prohibitin (type-1) expression ([2]; VLC-PUFA) | synergy with NPD1 in neuroprotection against NMDA excitotoxicity [1] | NMDA-induced neuronal death [1] | neuroprotection with MK801 and NPD1 added together [1] | neuroprotection against uncompensated oxidative stress [3] | neuroprotection against NMDA excitotoxicity (Hoechst) [1] | Iduna expression ([2]; 200 nM) | Sirtuin1 (SIRT1) expression [2] | also measured
CC/C=C\C/C=C\C/C=C\C/C=C\C/C=C\C/C=C\CCCCCCCCCCCCC(=O)O [32:6n3, (14Z,17Z,20Z,23Z,26Z,29Z)-dotriaconta-14,17,20,23,26,29-hexaenoic acid] | upregulate | upregulate | down regulated | down regulated | down regulated | upregulation | upregulation | upregulation |  |  |  |  |  |  |  | NMDA excitotoxicity ([1]; precursor at 250 nM): attenuate NMDA excitotoxicity
CC/C=C\C/C=C\C/C=C\C/C=C\C/C=C\C/C=C\CCCCCCCCCCCCCCC(=O)O [34:6n3, (16Z,19Z,22Z,25Z,28Z,31Z)-tetratriaconta-16,19,22,25,28,31-hexaenoic acid] | upregulate | upregulate | down regulated | down regulated | down regulated | upregulation | upregulation | upregulation |  |  |  |  |  |  |  | NMDA receptor-mediated excitotoxicity ([1]; precursor at 500 nM): attenuates NMDA receptor-mediated excitotoxicity
CC/C=C\C[C@H](O)\C=C/C=C/C=C/[C@H](O)C/C=C\C/C=C\CCCCCCCCCCCCC(=O)OC [ELV-N32-Me, methyl (14Z,17Z,20R,21E,23E,25Z,27S,29Z)-20,27-dihydroxydotriaconta-14,17,21,23,25,29-hexaenoate] |  |  |  |  |  |  |  |  | showed synergy | compensated for | improved the neuroprotection | evoked neuroprotection |  |  |  | relative potency of the combination with NPD1 ([1]; ELV-N32-Me plus NPD1 versus ELV-N32-Na plus NPD1): more potent
CC/C=C\C[C@H](O)\C=C/C=C/C=C/[C@H](O)C/C=C\C/C=C\CCCCCCCCCCCCC(=O)[O-].[Na+] [ELV-N32-Na, sodium (14Z,17Z,20R,21E,23E,25Z,27S,29Z)-20,27-dihydroxydotriaconta-14,17,21,23,25,29-hexaenoate] | enhanced the abundance | enhanced the abundance |  |  |  |  |  |  | showed synergy | compensated for | improved the neuroprotection | evoked neuroprotection | neuroprotection elicited | enhanced Iduna expression | upregulate | relative potency in upregulating SIRT1 ([2]; ELV-N32-Na versus ELV-N34-Na): more potent than ELV-N34-Na
CC/C=C\C[C@H](O)\C=C/C=C/C=C/[C@H](O)C/C=C\C/C=C\CCCCCCCCCCCCCCC(=O)OC [ELV-N34-Me, methyl (16Z,19Z,22R,23E,25E,27Z,29S,31Z)-22,29-dihydroxytetratriaconta-16,19,23,25,27,31-hexaenoate] |  |  |  |  |  |  |  |  |  |  |  |  | neuroprotection elicited |  |  | 
CC/C=C\C[C@H](O)\C=C/C=C/C=C/[C@H](O)C/C=C\C/C=C\CCCCCCCCCCCCCCC(=O)[O-].[Na+] [ELV-N34-Na, sodium (16Z,19Z,22R,23E,25E,27Z,29S,31Z)-22,29-dihydroxytetratriaconta-16,19,23,25,27,31-hexaenoate] | enhanced the abundance | enhanced the abundance |  |  |  |  |  |  |  |  |  | neuroprotection elicited |  | enhanced Iduna expression | upregulate | 
